Consider 1 substance from US20250352553A1, “TREATMENT OF HOSPITAL-ACQUIRED BACTERIAL PNEUMONIA AND VENTILATOR-ASSOCIATED BACTERIAL PNEUMONIA CAUSED BY SUSCEPTIBLE ISOLATES OF ACINETOBACTER BAUMANNII-CALCOACETICUS COMPLEX” (Entasis Therapeutics, Inc., priority 2024, published 2025).

Data set [1] has as its system Acinetobacter baumannii-calcoaceticus complex. Type of data set: in vivo, human. To be noted: Part A, CRABC m-MITT Population. As to the method:
The Phase 3 trial employed a non-inferiority design, as discussed and agreed with the FDA DAI. A Test of Cure (TOC) visit was completed 7±2 days after the last dose, and survival was assessed at Day 28.
Patients were treated with either XACDURO® (1 g sulbactam and 1 g durlobactam, or renally adjusted dose) intravenously over 3 hours every 6 hours (n=91) or colistin 2.5 mg/kg (or renally adjusted dose) intravenously over 30 minutes every 12 hours after an initial loading dose of colistin 2.5 to 5 mg/kg (n=86). Both treatment arms also received 1 g imipenem/1 g cilastatin (or renally adjusted dose) intravenously every 6 hours as background therapy for potential HABP/VABP pathogens other than Acinetobacter baumannii-calcoaceticus complex. Patients received up to 14 days of therapy.
Part A was a randomized, assessor-blinded, comparative portion of the Phase 3 trial. Patients were randomized (1:1) to 1.0 g sulbactam/1.0 g durlobactam or 2.5 mg/kg colistin. All patients in both treatment groups received 1.0 g imipenem/1.0 g cilastatin as background therapy to treat non-ABC co-infecting pathogens.
Randomization was stratified by infection type (HABP/VABP/ventilated pneumonia [VP] vs bacteremia), severity of illness, and geography.
Eligible patients were ≥18 years of age with a diagnosis of a serious infection caused by ABC as either a single pathogen or member of a polymicrobial infection confirmed by culture.
Non-inferiority was concluded if the upper limit of the 2-sided 95% CI was <20%.
Secondary efficacy endpoints for Parts A and B included: 28-day all-cause mortality in the m-MITT and ITT Populations, 14-day all-cause mortality in the CRABC m-MITT and m-MITT Populations, Clinical cure at TOC, End of Treatment (EOT), and Late Follow-Up (LFU) in the CRABC m-MITT Population, and Microbiological favorable assessment at TOC, EOT, and LFU in the CRABC m-MITT Population.

The conditions of data set [2]: in vivo.
Description: The modified RIFLE criteria includes: Risk (R): increased creatinine level 1.5× or glomerular filtration rate (GFR) decreased >25%, • Injury (I): increased creatinine level 2× or GFR decreased >50%, Failure (F): increased creatinine level 3×, GFR decreased >75%, or creatinine level ≥4 mg/dL, Loss (L): persistent acute renal failure or complete loss of function for >4 weeks, and End-Stage Kidney Disease (ESKD; E): ESKD for >3 months.
Data set [3] deals with Acinetobacter baumannii-calcoaceticus complex. To be noted: colistin-based therapy, cited from earlier work.

For colistin, the 28-day all-cause mortality in data set [1] is listed as 32.3%. Besides, the “clinical cure rate at TOC” value in data set [1] (Test of Cure visit) is 40.3%. Moreover, the “microbiological favorable assessment at TOC” value in data set [1] (eradication and presumed eradication) is 41.9%. For the same substance, the “incidence of nephrotoxicity (modified RIFLE criteria)” value in data set [2] is given as 37.6%. Moreover, the “mortality rate, random effects analysis” value in data set [3] (literature review, DerSimonian and Laird, 95% CI 32%, 47%) is reported as 40%. The “mortality rate, fixed effects analysis” value in data set [3] (literature review, 95% CI 35%, 45%) was 40%. In data set [3] (95% CI 36%, 47%), the “mortality rate, random effects meta-analysis updated with 4 additional studies” value was 41%.
